What was measured:
[1] = Feed intake and body weight gain of diabetes model mice; assay type: in vivo, mouse; conditions: for Weight gain / Feed intake: diabetes mice
Experimental: Nepodin was suspended in 0.5% carboxymethylcellulose aqueous solution (Wako Pure Chemical Industries, Ltd.). Male mice of 5 week old, BKS. Cg-+Lerp^db/+Lerp^db/J mouse (db/db diabetes model mouse, hereinafter, it is referred to as “diabetes model mouse”) for a test group (nepodin administration group) were purchased from Charles River Laboratories Japan Inc. Prior to the test, they were maintained for 1 week under the condition of 12 h light/12 h dark at a room temperature approximately 25° C., feeding normal diet. It is considered that db/db mouse also becomes a model for a metabolic syndrome model, because it is obese and has higher levels of variety of lipid. The test group mice were divided into 3 groups: C group (positive control group; n=10) with no nepodin administration; A group (n=6) to which nepodin was administered at the dose of 2 mg/kg/day or 10 mg/kg/day for 5 weeks; and B group (n=6). 0.5% carboxymethylcellulose aqueous solution without nepodin was administered to the negative control group (N group; n=6) and the positive control group (C group) under the same conditions as described above. Feeds and water are freely given to each group.

[2] = tested on: db/db diabetes model mouse; assay: Intraperitoneal glucose tolerance test (IPGTT) in diabetes model mice; assay type: in vivo
Experimental: Effect on glucose tolerance by nepodin administration was measured by using blood glucose level change after the intraperitoneal administration of nepodin to the diabetes model mice.
Intraperitoneal glucose tolerance test (IPGTT) was performed on the sixth week after nepodin administration start. At first, the mice of each group were fasted for 16 hours, and then, glucose was intraperitoneally administrated to each mouse at the dose of 2 g/kg.
Blood samples were obtained from the tail vain of each mouse at the time point of 0 min., 30 min., 60 min., 90 min., 120 min., and 180 min. after the glucose administration. Blood glucose level was determined by using Glucose CII Test Wako (Wako Pure Chemical Industries, Ltd.)

[3] = tested on: AMPK (5′ adenosine monophosphate-activated protein kinase); assay: Phosphorylated AMPK in L6 myotube cells by western blotting; assay type: cell-based, rat; conditions: nepodin 30 μM, up to 120 minutes
Experimental: The effect of nepodin administration was decided by determining the amount of a phospholylated AMPK (5′ adenosine monophosphate-activated protein kinase), which was important for glucose metabolism in L6 myotube cells, as an activation index.
L6 myoblast cells were suspended in D-MEM (5.5 mM of glucose concentration) supplemented with 10% v/v fetal bovine serum, 100 μg/mL of streptomycin, and 100 U/mL of penicillin G so as to become the cell concentration at 12.5×10^4 cells/well.
L6 myoblast cells were inoculated into a 6 cm diameter dish (FALCON Co., Inc.) (2 mL/well) so as to become the concentration at 5×10^5 cells/well, and cultured in the 5% CO2 incubator at 37° C. for 11 days. The medium was exchanged every 3 days. […]
The negative control samples were prepared by using the cytolytic buffer to be added to the cells cultured with the medium including DMSO, the solvent of nepodin, at the same amount as nepodin. The negative control sample and the samples were separated by using SDS-PAGE according to the conventional method, and were analyzed by using anti-phosphorylated AMPK antibody and anti-AMPK antibody by the western blotting.

L6 myotube cells = assay: Glucose intake by L6 myotube cells (decrease of glucose in culture solution); assay type: cell-based, rat; conditions: nepodin 10 to 40 μM, 4 hours, versus medium without nepodin
Experimental: L6 myoblast cells were suspended at concentration of 12.5×10^4 cells/mL in a D-MEM medium with 5.5 mM of glucose concentration to which 10% v/v fetal bovine serum, 100 μg/mL of streptomycin, and 100 U/mL of penicillin G were added.
The cells were inoculated at the concentration 5×10^4 cells/well (0.4 mL/well) in 24 well multi-plate (NUNC Co., Inc.); then cultured in a 5% CO2 incubator at 37° C. for 11 days. The medium was exchanged every 3 days.
After 11 days, the culture medium was replaced with filter sterilized Krebs solution (Krebs-Henseleit buffer; pH 7.4, 141 mg/L of MgSO4, […] of KH2PO4, 350 mg/L of KCL, 6,900 mg/L of NaCl, 373 mg/L of CaCl2.2H2O, and 2,100 mg/L of NaHCO3) (KHH buffer) supplemented with 0.1% bovine serum albumin, 10 mM of Hepes, and […] of pyruvate sodium but without glucose to maintain the cells in the 5% CO2 incubator at 37° C. for 2 hours.
Next, each KHH buffer was prepared: only 11 mM glucose was added, or 11 mM of glucose and nepodin (10 μM, 20 μM, or 40 μM). […]
Glucose concentrations in the culture solution at the beginning and after 4 hours from the culture start were determined by using a microplate reader (Beckman Coulter, Inc. AD200) and a glucose determination kit (Glucose CII test Wako (Wako Pure Chemical Industries, Ltd.), Catalog number 439-90901). […]

[4] = tested on: db/db diabetes model mouse; assay: Liver and serum neutral lipid and cholesterol levels in diabetes model mice; assay type: in vivo
Text: (§1) After the termination of the experiment shown in EXAMPLE 4, the blood samples were obtained from the abdominal aorta of the mice from each group under anesthesia, and they were centrifuged with 1,000×g at room temperature to obtain serum samples. After that, the mice of each group were killed by cervical dislocation to put out of the misery; then organs were excised to use the following experiments.
Livers from the mice of each group were homogenized and total lipid was extracted by using Folch method. Both amounts of neutral lipid and cholesterol in the liver were determined by using LabAssat Tiglyceride (Wako Pure Chemical Industries, Ltd.) and LabAssay Cholesterol (Wako Pure Chemical Industries, Ltd.) Results are shown in FIGS. 7A and 7B.
The serum neutral lipid (triglyceride) level was determined by using LabAssay Triglyceride (Wako Pure Chemical Industries, Ltd.). The serum cholesterol level was determined by using LabAssay Cholesterol (Wako Pure Chemical Industries, Ltd.).

[5] = tested on: db/db diabetes model mouse; assay: Fasting blood glucose of diabetes model mice; assay type: in vivo; conditions: 4 hour fasting, 2 to 4 weeks after administration start, versus no nepodin
Experimental: Effect of nepodin was evaluated by using fasting blood glucose of model mice (db/db mouse) having diabetes II as an index.
Nepodin was suspended in 0.5% carboxymethylcellulose aqueous solution (Wako Pure Chemical Industries, Ltd.). Male mice of 5 week old, BKS. Cg-+Lerp^db/+Lerp^db/J mouse (db/db diabetes model mouse, hereinafter, it is referred to as “diabetes model mouse”) for a test group (nepodin administration group) were purchased from Charles River Laboratories Japan Inc. Prior to the test, they were maintained for 1 week under the condition of 12 h light/12 h dark at a room temperature approximately 25° C., feeding normal diet. It is considered that db/db mouse also becomes a model for a metabolic syndrome model, because it is obese and has higher levels of variety of lipid.
Heterozygous male mice of 5 week old, BKS. Cg-+Dock 7^m/+Lerp^db/J mouse (normal mouse) for a negative control group (without nepodin administration) were purchased from Charles River Japan Inc. Prior to the test, they were maintained as the same condition as those of the test group. […]
Blood samples were obtained from the tail vein of the mice after 4 hour fasting per week. The blood glucose level was measured by using Glucose CII test Wako (Wako Pure Chemical Industries, Ltd.)

[6] = tested on: db/db diabetes model mouse; assay: HOMA-IR insulin resistance index in diabetes model mice; assay type: in vivo; conditions: groups A and B (2 and 10 mg/kg/day) versus group C
Experimental: as §1
Serum insulin level of Lewi's insulin-mouse-T (Shibayagi Co., Ltd.) was determined by ELISA (measurement at the wavelengths of 450 nm and 620 nm), according to protocols written in its package insert.
HOMA-IR (Homeostasis model assessment-Insulin Resistance), which is an index of the insulin resistance, was calculated based on data on both blood glucose and serum insulin, by using following equation. HOMA-IR=(blood glucose×insulin level)/405 (1)
HOMA-IR values were obtained from both levels of serum blood glucose and serum insulin of the mice in group N (the normal mice), the administration groups A, B, and C. They were used to investigate for the change of the insulin resistant index.

[7] = tested on: db/db diabetes model mouse; assay: Serum TBARS value (anti-oxidizing action) in diabetes model mice; assay type: in vivo; conditions: groups A and B versus group C
Experimental: as §1
TBARS value, an index for anti-oxidizing action, was determined by using a TBARS Assay Kit (ZeptoMetrix Co., Inc.).

[8] = nepodin administration groups versus diabetes model group with no administration

`CC(=O)c1c(C)cc2cccc(O)c2c1O` [nepodin, 2-Acetyl-1,8-dihydroxy-3-methyl-napthalene] showed a Weight gain ([1]; group A, nepodin 2 mg/kg/day) of 18.7 ± 1.76 g/5 weeks, a Feed intake ([1]; group A, nepodin 2 mg/kg/day for 5 weeks) of 5.26 ± 0.61 g/day and a Weight gain ([1]; group B, nepodin 10 mg/kg/day) of 19.45 ± 2.68 g/5 weeks. For the same compound, the Feed intake ([1]; group B, nepodin 10 mg/kg/day for 5 weeks) was 5.40 ± 0.50 g/day, the “average amount of feed intake and body weight gain versus C group” value ([1]; diabetes model mice, A group and B group (2 or 10 mg/kg/day) versus no nepodin) was “no significant difference” and the “area under the curve (AUC) of blood glucose levels” value ([2]; B group (10 mg/kg), AUC of C group = 100%, p<0.01) was “significantly low”. The “increase of the blood glucose level after glucose load” value ([2]; B group, 10 mg/kg nepodin, sixth week, glucose 2 g/kg i.p. after 16 hours fasting) was “significantly suppressed”, the “Phosphorylated AMPK in L6 myotube cells” value [3] was “increased” and the “glucose intake by L6 myotube cells” value (L6 myotube cells) was “dose-dependently improved”. The “cholesterol level in the liver” value ([4]; groups A and B versus group C) was “significantly lower”, the “neutral lipid level in the liver” value ([4]; groups A and B versus group C) was “significantly lower” and the serum cholesterol level [4, 8] was “significantly lower”. For the same compound, the “serum neutral lipid (triglyceride) level” value [4, 8] was “significantly lower”, the “fasting blood glucose level” value [5] was “significantly lower” and the HOMA-IR [6] was “significantly lower”. The “serum TBARS value” [7] was “significantly lower”.

From patent US8692023B2, “Sugar metabolism improving composition, and pharmaceutical preparation containing said composition” (Erina Co., Inc., priority 2010, dated 2014)
